Like-named read-outs stand apart in the source and are kept apart here.
Experiment: Plasma pharmacokinetics after single oral dose of Δ8-THCV in MCT oil (LC-MS/MS, non-compartmental analysis)
Format: in vivo, human
Parameters: Clast (last quantifiable concentration): unit not given here
Conditions: for Clast (last quantifiable concentration) / tlast (time to last quantifiable concentration) / concentration at 0.5 h / concentration at 1 h / concentration at 2 h / concentration at 4 h / concentration at 6 h / concentration at 8 h / Tmax / AUC(0-t) / Cmax / MRT: plasma; for plasma concentration: Predose; for concentration at 0.5 h / concentration at 1 h / concentration at 2 h / concentration at 4 h / concentration at 6 h / concentration at 8 h / Tmax / AUC(0-t) / Cmax / MRT: human; for Tmax: read-out: tmax; for MRT: read-out: MRT (mean residence time)
How it was run: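 Healthy participants received single oral Δ8-THCV in MCT oil (50 mg/mL; 12.5-200 mg, or placebo) after a high-fat, high-calorie breakfast, with ≥1-week washout. Plasma (K2EDTA) sampled predose and 0.5-8 h post-dose, assayed by validated LC-MS/MS including metabolites; PK by non-compartmental analysis, sub-LLOQ values set to 0.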

[1] = 12.5 mg single oral Δ8-THCV in MCT oil, Mean (±SD)
[2] = 12.5 mg single oral Δ8-THCV in MCT oil, Median (Range)
[3] = 25 mg single oral Δ8-THCV in MCT oil, Mean (±SD)
[4] = 25 mg single oral Δ8-THCV in MCT oil, Median (Range)
[5] = 50 mg single oral Δ8-THCV in MCT oil, Mean (±SD)
[6] = 50 mg single oral Δ8-THCV in MCT oil, Median (Range)
[7] = 100 mg single oral Δ8-THCV in MCT oil, Mean (±SD)
[8] = 100 mg single oral Δ8-THCV in MCT oil, Median (Range)
[9] = 200 mg single oral Δ8-THCV in MCT oil, Mean (±SD)
[10] = 200 mg single oral Δ8-THCV in MCT oil, Median (Range)
[11] = oral, 12.5 mg, 12.5 mg Δ8-THCV dose, Mean (SD, %CV)
[12] = oral, 12.5 mg, 12.5 mg Δ8-THCV dose, Median (IQ Range)
[13] = oral, 25 mg, 25 mg Δ8-THCV dose, Mean (SD, %CV)
[14] = oral, 25 mg, 25 mg Δ8-THCV dose, Median (IQ Range)
[15] = oral, 50 mg, 50 mg Δ8-THCV dose, Mean (SD, %CV)
[16] = oral, 50 mg, 50 mg Δ8-THCV dose, Median (IQ Range)
[17] = oral, 100 mg, 100 mg Δ8-THCV dose, Mean (SD, %CV)
[18] = oral, 100 mg, 100 mg Δ8-THCV dose, Median (IQ Range)
[19] = oral, 200 mg, 200 mg Δ8-THCV dose, Mean (SD, %CV)
[20] = oral, 200 mg, 200 mg Δ8-THCV dose, Median (IQ Range)
[21] = po, 12.5 mg, 12.5 mg single oral Δ8-THCV in MCT oil, Mean (±SD)
[22] = po, 12.5 mg, 12.5 mg single oral Δ8-THCV in MCT oil, Median (Range)
[23] = po, 25 mg, 25 mg single oral Δ8-THCV in MCT oil, Mean (±SD)
[24] = po, 25 mg, 25 mg single oral Δ8-THCV in MCT oil, Median (Range)
[25] = po, 50 mg, 50 mg single oral Δ8-THCV in MCT oil, Mean (±SD)
[26] = po, 50 mg, 50 mg single oral Δ8-THCV in MCT oil, Median (Range)
[27] = po, 100 mg, 100 mg single oral Δ8-THCV in MCT oil, Mean (±SD)
[28] = po, 100 mg, 100 mg single oral Δ8-THCV in MCT oil, Median (Range)
[29] = po, 200 mg, 200 mg single oral Δ8-THCV in MCT oil, Mean (±SD)
[30] = po, 200 mg, 200 mg single oral Δ8-THCV in MCT oil, Median (Range)

For `CCCc1cc(O)c2c(c1)OC(C)(C)[C@@H]1CCC(C(=O)O)=C[C@@H]21` [Δ9-THCV-COOH, 11-nor-9-carboxy-Δ9-THCV], the “Clast (last quantifiable concentration)” value [1] was 1.9 (±0.8), the “tlast (time to last quantifiable concentration)” value (shortened to “tlast”) [1] was 6.8 (±1.7) and the “Clast (last quantifiable concentration)” value [2] was 1.7 (1.1–3.3). For the same molecule, the “tlast” value [2] was 8 (4–8), the “Clast (last quantifiable concentration)” value [3] was 2.6 (±1) and the “tlast” value [3] was 7.6 (±1.2). For the same molecule, the “Clast (last quantifiable concentration)” value [4] was 2.4 (1.3–4.4), the “tlast” value [4] was 8 (4–8) and the “Clast (last quantifiable concentration)” value [5] was 5.4 (±1.9). For the same molecule, the “tlast” value [5] was 8 (±0), the “Clast (last quantifiable concentration)” value [6] was 5.2 (2.4–8.5) and the “tlast” value [6] was 8 (8–8). For the same molecule, the “Clast (last quantifiable concentration)” value [7] was 10.8 (±3.7), the “tlast” value [7] was 8 (±0) and the “Clast (last quantifiable concentration)” value [8] was 10.5 (6.2–16.1). The “tlast” value [8] was 8 (8–8), the “Clast (last quantifiable concentration)” value [9] was 29.2 (±16.1) and the “tlast” value [9] was 8 (±0). For the same molecule, the “Clast (last quantifiable concentration)” value [10] was 26.3 (10.9–63.8), the “tlast” value [10] was 8 (8–8) and the plasma concentration (12.5 mg Δ8-THCV dose, Mean (SD, %CV)) was 0 (±0, --) ng/mL. For the same molecule, the plasma concentration (12.5 mg Δ8-THCV dose, Median (IQ Range)) was 0 (0–0) ng/mL, the plasma concentration (25 mg Δ8-THCV dose, Mean (SD, %CV)) was 0 (±0, --) ng/mL and the plasma concentration (25 mg Δ8-THCV dose, Median (IQ Range)) was 0 (0–0) ng/mL. For the same molecule, the plasma concentration (50 mg Δ8-THCV dose, Mean (SD, %CV)) was 0 (±0, --) ng/mL, the plasma concentration (50 mg Δ8-THCV dose, Median (IQ Range)) was 0 (0–0) ng/mL and the plasma concentration (100 mg Δ8-THCV dose, Mean (SD, %CV)) was 0 (±0, --) ng/mL. For the same molecule, the plasma concentration (100 mg Δ8-THCV dose, Median (IQ Range)) was 0 (0–0) ng/mL, the plasma concentration (200 mg Δ8-THCV dose, Mean (SD, %CV)) was 0 (±0, --) ng/mL and the plasma concentration (200 mg Δ8-THCV dose, Median (IQ Range)) was 0 (0–0) ng/mL. For the same molecule, the concentration at 0.5 h [11] was 0 ng/mL, the concentration at 0.5 h [12] was 0 ng/mL and the concentration at 1 h [11] was 0.1 ng/mL. It also gave a concentration at 1 h [12] of 0 ng/mL, a concentration at 2 h [11] of 0.5 ng/mL and a concentration at 2 h [12] of 0 ng/mL. The concentration at 4 h [11] was 1.9 ng/mL, the concentration at 4 h [12] was 1.8 ng/mL and the concentration at 6 h [11] was 1.5 ng/mL. It also gave a concentration at 6 h [12] of 1.3 ng/mL, a concentration at 8 h [11] of 1.2 ng/mL and a concentration at 8 h [12] of 1.4 ng/mL. For the same molecule, the concentration at 0.5 h [13] was 0 ng/mL, the concentration at 0.5 h [14] was 0 ng/mL and the concentration at 1 h [13] was 0.7 ng/mL. The concentration at 1 h [14] was 0 ng/mL, the concentration at 2 h [13] was 1.6 ng/mL and the concentration at 2 h [14] was 1.7 ng/mL. For the same molecule, the concentration at 4 h [13] was 3.7 ng/mL, the concentration at 4 h [14] was 3.6 ng/mL and the concentration at 6 h [13] was 3 ng/mL. For the same molecule, the concentration at 6 h [14] was 2.4 ng/mL, the concentration at 8 h [13] was 2.3 ng/mL and the concentration at 8 h [14] was 2.3 ng/mL. The concentration at 0.5 h [15] was 0 ng/mL, the concentration at 0.5 h [16] was 0 ng/mL and the concentration at 1 h [15] was 0.6 ng/mL. It also gave a concentration at 1 h [16] of 0 ng/mL, a concentration at 2 h [15] of 2.3 ng/mL and a concentration at 2 h [16] of 0 ng/mL. It also gave a concentration at 4 h [15] of 5.4 ng/mL, a concentration at 4 h [16] of 5 ng/mL and a concentration at 6 h [15] of 6.7 ng/mL. For the same molecule, the concentration at 6 h [16] was 5.9 ng/mL, the concentration at 8 h [15] was 5.4 ng/mL and the concentration at 8 h [16] was 5.2 ng/mL. For the same molecule, the concentration at 0.5 h [17] was 0.3 ng/mL, the concentration at 0.5 h [18] was 0 ng/mL and the concentration at 1 h [17] was 5.8 ng/mL. For the same molecule, the concentration at 1 h [18] was 1.9 ng/mL, the concentration at 2 h [17] was 9.2 ng/mL and the concentration at 2 h [18] was 8.7 ng/mL. For the same molecule, the concentration at 4 h [17] was 16.1 ng/mL, the concentration at 4 h [18] was 16 ng/mL and the concentration at 6 h [17] was 15.6 ng/mL. It also gave a concentration at 6 h [18] of 17.5 ng/mL, a concentration at 8 h [17] of 10.8 ng/mL and a concentration at 8 h [18] of 10.5 ng/mL. The concentration at 0.5 h [19] was 0.1 ng/mL, the concentration at 0.5 h [20] was 0 ng/mL and the concentration at 1 h [19] was 4.9 ng/mL. It also gave a concentration at 1 h [20] of 2.7 ng/mL, a concentration at 2 h [19] of 19.1 ng/mL and a concentration at 2 h [20] of 9.4 ng/mL. It also gave a concentration at 4 h [19] of 37.1 ng/mL, a concentration at 4 h [20] of 40 ng/mL and a concentration at 6 h [19] of 32.3 ng/mL. It also gave a concentration at 6 h [20] of 28.5 ng/mL, a concentration at 8 h [19] of 29.2 ng/mL and a concentration at 8 h [20] of 26.3 ng/mL. It also gave a Tmax (oral, present study, MCT oil formulation, as compared in discussion) of 5 h, an AUC(0-t) [21] of 7.9 ng·h/mL and a Cmax [21] of 2.7 ng/mL. It also gave an AUC(0-t) [22] of 5.6 ng·h/mL, a Cmax [22] of 2.8 ng/mL and an MRT [21] of 5.1 h. For the same molecule, the Tmax [21] was 5.1 h, the MRT [22] was 5.3 h and the Tmax [22] was 4 h. The AUC(0-t) [23] was 18.3 ng·h/mL, the Cmax [23] was 4.2 ng/mL and the AUC(0-t) [24] was 19.6 ng·h/mL. It also gave a Cmax [24] of 4.4 ng/mL, an MRT [23] of 4.8 h and a Tmax [23] of 4.6 h. For the same molecule, the MRT [24] was 4.6 h, the Tmax [24] was 4 h and the AUC(0-t) [25] was 33.4 ng·h/mL. For the same molecule, the Cmax [25] was 8.8 ng/mL, the AUC(0-t) [26] was 30.8 ng·h/mL and the Cmax [26] was 7.7 ng/mL. For the same molecule, the MRT [25] was 5.5 h, the Tmax [25] was 5.1 h and the MRT [26] was 5.5 h. It also gave a Tmax [26] of 6 h, an AUC(0-t) [27] of 92.5 ng·h/mL and a Cmax [27] of 22.5 ng/mL. The AUC(0-t) [28] was 86.5 ng·h/mL, the Cmax [28] was 20.6 ng/mL and the MRT [27] was 4.9 h. It also gave a Tmax [27] of 4.5 h, an MRT [28] of 4.6 h and a Tmax [28] of 4 h. It also gave an AUC(0-t) [29] of 201 ng·h/mL, a Cmax [29] of 50.3 ng/mL and an AUC(0-t) [30] of 190 ng·h/mL. For the same molecule, the Cmax [30] was 48.2 ng/mL, the MRT [29] was 5.1 h and the Tmax [29] was 5.3 h. For the same molecule, the MRT [30] was 5.2 h, the Tmax [30] was 6 h and the “number of positive plasma samples” value (of 504 plasma samples from 15 participants after oral Δ8-THCV) was 260. The “concentration in representative plasma sample” value (one subject after oral Δ8-THCV in MCT oil, Figure A1) was 33.2 ng/mL.
